Data published in PubChem BioAssay (NCI).
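Assay format: 96-well plates, 48-hour exposure. Here, GI50 denotes the concentration required for 50% inhibition of growth. TGI: total growth inhibition.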

Key:
Test in all cases: DTP human tumour cell line panel, 48 h
SF-268 CNS = system: SF-268 CNS
MDA-MB-435 = system: MDA-MB-435
HCT-116 colon = system: HCT-116 colon
KM12 colon = system: KM12 colon
M14 melanoma = system: M14 melanoma
RPMI-8226 leukemia = system: RPMI-8226 leukemia
T-47D breast = system: T-47D breast
RXF 393 renal = system: RXF 393 renal
HT29 colon = system: HT29 colon
CCRF-CEM leukemia = system: CCRF-CEM leukemia
UACC-62 melanoma = system: UACC-62 melanoma
SW-620 colon = system: SW-620 colon
A498 renal = system: A498 renal
MDA-MB-231 breast = system: MDA-MB-231 breast
HCT-15 colon = system: HCT-15 colon
NCI-H460 lung = system: NCI-H460 lung
SF-295 CNS = system: SF-295 CNS
NCI-H226 lung = system: NCI-H226 lung
NCI-H23 lung = system: NCI-H23 lung
OVCAR-8 ovarian = system: OVCAR-8 ovarian
HL-60(TB) leukemia = system: HL-60(TB) leukemia
SK-MEL-28 melanoma = system: SK-MEL-28 melanoma
CAKI-1 renal = system: CAKI-1 renal
MALME-3M melanoma = system: MALME-3M melanoma
SK-OV-3 ovarian = system: SK-OV-3 ovarian
NCI-H522 lung = system: NCI-H522 lung
OVCAR-4 ovarian = system: OVCAR-4 ovarian
OVCAR-3 ovarian = system: OVCAR-3 ovarian
HOP-62 NSCLC = system: HOP-62 NSCLC
NCI/ADR-RES ovarian = system: NCI/ADR-RES ovarian
SNB-75 CNS = system: SNB-75 CNS
786-0 renal = system: 786-0 renal
MOLT-4 leukemia = system: MOLT-4 leukemia
OVCAR-5 ovarian = system: OVCAR-5 ovarian
MCF7 breast = system: MCF7 breast
SK-MEL-2 melanoma = system: SK-MEL-2 melanoma
COLO 205 colon = system: COLO 205 colon
SF-539 CNS = system: SF-539 CNS
IGROV1 ovarian = system: IGROV1 ovarian
SK-MEL-5 melanoma = system: SK-MEL-5 melanoma
ACHN renal = system: ACHN renal
K-562 leukemia = system: K-562 leukemia
BT-549 breast = system: BT-549 breast
EKVX NSCLC = system: EKVX NSCLC
DU-145 prostate = system: DU-145 prostate
LOX IMVI melanoma = system: LOX IMVI melanoma
SR leukemia = system: SR leukemia
SNB-19 CNS = system: SNB-19 CNS
PC-3 prostate = system: PC-3 prostate
U251 CNS = system: U251 CNS
HS 578T breast = system: HS 578T breast
UO-31 renal = system: UO-31 renal
A549 NSCLC = system: A549 NSCLC
UACC-257 melanoma = system: UACC-257 melanoma
TK-10 renal = system: TK-10 renal

Cc1ccc(/C(=N/NS(=O)(=O)c2ccc([N+](=O)[O-])cc2)Sc2cc(Cl)c(C)cc2S(N)(=O)=O)cc1
GI50 (SF-268 CNS): > 100 µM | TGI (SF-268 CNS): > 100 µM | GI50 (MDA-MB-435): > 100 µM | TGI (MDA-MB-435): > 100 µM | GI50 (HCT-116 colon): > 100 µM | TGI (HCT-116 colon): > 100 µM | GI50 (KM12 colon): > 100 µM | TGI (KM12 colon): > 100 µM | GI50 (M14 melanoma): > 100 µM | TGI (M14 melanoma): > 100 µM | GI50 (RPMI-8226 leukemia): 11.9 µM | TGI (RPMI-8226 leukemia): > 100 µM | GI50 (T-47D breast): > 100 µM | TGI (T-47D breast): > 100 µM | GI50 (RXF 393 renal): 47.7 µM | TGI (RXF 393 renal): > 100 µM | GI50 (HT29 colon): > 100 µM | TGI (HT29 colon): > 100 µM | GI50 (CCRF-CEM leukemia): > 100 µM | TGI (CCRF-CEM leukemia): > 100 µM | GI50 (UACC-62 melanoma): > 100 µM | TGI (UACC-62 melanoma): > 100 µM | GI50 (SW-620 colon): > 100 µM | TGI (SW-620 colon): > 100 µM | GI50 (A498 renal): > 100 µM | TGI (A498 renal): > 100 µM | GI50 (MDA-MB-231 breast): 27.3 µM | TGI (MDA-MB-231 breast): > 100 µM | GI50 (HCT-15 colon): > 100 µM | TGI (HCT-15 colon): > 100 µM | GI50 (NCI-H460 lung): > 100 µM | TGI (NCI-H460 lung): > 100 µM | GI50 (SF-295 CNS): > 100 µM | TGI (SF-295 CNS): > 100 µM | GI50 (NCI-H226 lung): > 100 µM | TGI (NCI-H226 lung): > 100 µM | GI50 (NCI-H23 lung): > 100 µM | TGI (NCI-H23 lung): > 100 µM | GI50 (OVCAR-8 ovarian): > 100 µM | TGI (OVCAR-8 ovarian): > 100 µM | GI50 (HL-60(TB) leukemia): > 100 µM | TGI (HL-60(TB) leukemia): > 100 µM | GI50 (SK-MEL-28 melanoma): > 100 µM | TGI (SK-MEL-28 melanoma): > 100 µM | GI50 (CAKI-1 renal): > 100 µM | TGI (CAKI-1 renal): > 100 µM | GI50 (MALME-3M melanoma): 11.9 µM | TGI (MALME-3M melanoma): > 100 µM | GI50 (SK-OV-3 ovarian): > 100 µM | TGI (SK-OV-3 ovarian): > 100 µM | GI50 (NCI-H522 lung): > 100 µM | TGI (NCI-H522 lung): > 100 µM | GI50 (OVCAR-4 ovarian): > 100 µM | TGI (OVCAR-4 ovarian): > 100 µM | GI50 (OVCAR-3 ovarian): > 100 µM | TGI (OVCAR-3 ovarian): > 100 µM | GI50 (HOP-62 NSCLC): > 100 µM | TGI (HOP-62 NSCLC): > 100 µM | GI50 (NCI/ADR-RES ovarian): > 100 µM | TGI (NCI/ADR-RES ovarian): > 100 µM | GI50 (SNB-75 CNS): > 100 µM | TGI (SNB-75 CNS): > 100 µM | GI50 (786-0 renal): > 100 µM | TGI (786-0 renal): > 100 µM | GI50 (MOLT-4 leukemia): > 100 µM | TGI (MOLT-4 leukemia): > 100 µM | GI50 (OVCAR-5 ovarian): > 100 µM | TGI (OVCAR-5 ovarian): > 100 µM | GI50 (MCF7 breast): > 100 µM | TGI (MCF7 breast): > 100 µM | GI50 (SK-MEL-2 melanoma): > 100 µM | TGI (SK-MEL-2 melanoma): > 100 µM | GI50 (COLO 205 colon): > 100 µM | TGI (COLO 205 colon): > 100 µM | GI50 (SF-539 CNS): > 100 µM | TGI (SF-539 CNS): > 100 µM | GI50 (IGROV1 ovarian): > 100 µM | TGI (IGROV1 ovarian): > 100 µM | GI50 (SK-MEL-5 melanoma): > 100 µM | TGI (SK-MEL-5 melanoma): > 100 µM | GI50 (ACHN renal): > 100 µM | TGI (ACHN renal): > 100 µM | GI50 (K-562 leukemia): > 100 µM | TGI (K-562 leukemia): > 100 µM | GI50 (BT-549 breast): > 100 µM | TGI (BT-549 breast): > 100 µM | GI50 (EKVX NSCLC): > 100 µM | TGI (EKVX NSCLC): > 100 µM | GI50 (DU-145 prostate): > 100 µM | TGI (DU-145 prostate): > 100 µM | GI50 (LOX IMVI melanoma): > 100 µM | TGI (LOX IMVI melanoma): > 100 µM | GI50 (SR leukemia): > 100 µM | TGI (SR leukemia): > 100 µM | GI50 (SNB-19 CNS): > 100 µM | TGI (SNB-19 CNS): > 100 µM | GI50 (PC-3 prostate): 12.5 µM | TGI (PC-3 prostate): > 100 µM | GI50 (U251 CNS): > 100 µM | TGI (U251 CNS): > 100 µM | GI50 (HS 578T breast): > 100 µM | TGI (HS 578T breast): > 100 µM | GI50 (UO-31 renal): > 100 µM | TGI (UO-31 renal): > 100 µM | GI50 (A549 NSCLC): > 100 µM | TGI (A549 NSCLC): > 100 µM | GI50 (UACC-257 melanoma): > 100 µM | TGI (UACC-257 melanoma): > 100 µM | GI50 (TK-10 renal): > 100 µM | TGI (TK-10 renal): > 100 µM
